Values of other authors as cited in patent US10273264B2, “Cortistatin analogues and syntheses and uses thereof” (President and Fellows of Harvard College, priority 2015, dated 2019).

Tests used:
CDK19 = CDK19 (Homo sapiens, UniProt Q9BWU1); settings: reported, Cee et al. and US 20120071477
[1] = system: beta-catenin activated transcription; settings: reporter gene assay; as described in PCT/US2014/72365
[2] = system: Wnt/beta-catenin target genes in AML cells; settings: as described in PCT/US2014/72365
STAT1 phosphorylation = settings: as described in PCT/US2014/72365
AML cell lines = settings: in vitro; as described in PCT/US2014/72365
AML = settings: in vivo; as described in PCT/US2014/72365
[3] = system: cell lines derived from patients with MPNs; settings: as described in PCT/US2014/72365
PMF = settings: as described in PCT/US2014/72365

CDK19, sequence (Q9BWU1 whole entry): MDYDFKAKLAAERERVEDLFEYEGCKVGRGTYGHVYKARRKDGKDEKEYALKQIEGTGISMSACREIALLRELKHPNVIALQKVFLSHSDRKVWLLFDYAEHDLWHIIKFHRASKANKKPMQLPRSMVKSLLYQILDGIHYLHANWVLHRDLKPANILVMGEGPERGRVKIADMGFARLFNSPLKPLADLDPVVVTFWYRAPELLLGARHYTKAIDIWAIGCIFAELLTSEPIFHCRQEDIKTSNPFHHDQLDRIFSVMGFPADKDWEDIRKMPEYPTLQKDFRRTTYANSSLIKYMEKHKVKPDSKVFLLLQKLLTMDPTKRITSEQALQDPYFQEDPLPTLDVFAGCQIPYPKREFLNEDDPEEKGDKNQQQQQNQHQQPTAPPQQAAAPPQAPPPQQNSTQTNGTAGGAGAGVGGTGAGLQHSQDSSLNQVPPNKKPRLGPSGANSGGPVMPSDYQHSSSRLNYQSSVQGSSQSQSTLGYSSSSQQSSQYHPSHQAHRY

Q: Which “binding to CDK19” value (CDK19) does the source give for cortistatin A here?
A: bind

Q: What about the “inhibition of beta-catenin activated transcription” value [1] of the same substance?
A: inhibits

Q: What about the “inhibition of expression of putative Wnt/beta-catenin target genes” value [2] of the same substance?
A: inhibits

Q: And the “inhibition of interferon-gamma-stimulated STAT1 phosphorylation” value (STAT1 phosphorylation)?
A: inhibits

Q: What about the “inhibition of proliferation of AML cell lines” value (AML cell lines) of the same substance?
A: inhibit

Q: And the “inhibition of AML progression” value (AML)?
A: inhibits

Q: And the “inhibition of proliferation of MPN patient-derived cell lines” value [3]?
A: inhibits

Q: And the “efficacy in an in vivo model of PMF” value (PMF)?
A: efficacious
